{
  "source": "paper PMC12446468",
  "about": "“Anti-inflammatory and cytotoxic assessment of flavonoids isolated from Viola odorata flowers with computer-guided docking study” (Scientific Reports, 2025)",
  "key": {"[1]": {"test_system": "hepatocellular carcinoma (HepG2)", "assay": "MTT cytotoxicity assay, HepG2", "format": "cell-based, human", "settings": "for % Cell viability / % Cytotoxicity: 48 h", "procedure": "(§1) The assessment of cytotoxicity for the methanolic extract and isolated flavonoids was performed under controlled and sterile conditions within a Class II A2 Laminar flow biosafety cabinet. The carcinoma cell lines used in this study was obtained from Nawah Scientific Inc. (Cairo, Egypt). The cells were cultured in Dulbecco’s Modified Eagle’s Medium, enriched with 10% heat-inactivated fetal bovine serum, 100 U/ml penicillin, and 100 μg/ml streptomycin sulfate, maintained at […] in humidified incubators with 5% CO2. Upon reaching approximately 80% confluence, the cells were subcultured using a trypsin–EDTA solution. Harvesting occurred during the logarithmic growth phase. The methanolic extract and isolated flavonoids were dissolved in DMSO and stored at − 20 °C. For each experimental trial, the stock solutions were mixed with the culture medium to obtain the required final concentrations.\n(§2) The effectiveness of the extract was compared to that of the reference drug, Doxorubicin. The percentage of cell viability was calculated by taking the ratio of the absorbance of the plant extract to that of the control, multiplied by 100. Furthermore, the IC50 value of the plant extract was determined using Sigma Plot software version 11 (Spw.exe) (https://sigmaplot.software.informer.com/11.0/)."}, "[2]": {"test_system": "human colorectal carcinoma cells (HTC-116)", "assay": "MTT cytotoxicity assay, HTC-116", "format": "cell-based", "settings": "for % Cell viability / % Cytotoxicity: 48 h", "procedure": "as §1, §2"}, "[3]": {"test_system": "human colonic epithelial cells (Caco-2)", "assay": "MTT cytotoxicity assay, Caco-2", "format": "cell-based", "settings": "for % Cell viability / % Cytotoxicity: 48 h", "procedure": "as §1, §2"}, "COX-1": {"target": "T1, COX-1 (Ovis aries, UniProt P05979)", "T1 construct": "purchased Cayman 560131", "T1 sequence (P05979 25-600)": "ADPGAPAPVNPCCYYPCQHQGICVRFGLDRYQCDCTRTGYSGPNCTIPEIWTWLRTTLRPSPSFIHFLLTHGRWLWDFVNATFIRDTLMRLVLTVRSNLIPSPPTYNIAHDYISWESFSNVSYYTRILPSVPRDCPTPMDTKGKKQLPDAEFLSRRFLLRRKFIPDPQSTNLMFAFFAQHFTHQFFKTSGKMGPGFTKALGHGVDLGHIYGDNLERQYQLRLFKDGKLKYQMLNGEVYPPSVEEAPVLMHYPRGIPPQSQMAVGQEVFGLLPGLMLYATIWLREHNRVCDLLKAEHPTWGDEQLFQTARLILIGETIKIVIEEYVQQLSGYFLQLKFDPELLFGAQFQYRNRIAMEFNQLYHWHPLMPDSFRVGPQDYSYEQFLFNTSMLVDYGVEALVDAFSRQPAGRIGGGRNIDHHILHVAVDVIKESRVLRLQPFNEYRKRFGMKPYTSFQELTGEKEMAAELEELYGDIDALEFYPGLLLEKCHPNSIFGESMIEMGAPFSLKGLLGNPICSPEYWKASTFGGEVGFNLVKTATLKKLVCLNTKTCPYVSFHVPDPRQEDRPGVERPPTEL", "assay": "COX-1 inhibition assay (Cayman COX kit)", "format": "biochemical, ovine/human", "settings": "mean ± SE, n = 3", "source_text": "(§3) The requirements for High-Performance Liquid Chromatography (HPLC) and all compounds tested were of the utmost analytical purity. […] COX-1 and COX-2 (ovine/human), as well as the 5-LOX enzyme (human recombinant) were obtained from Sigma-Aldrich. Dulbecco’s Modified Eagle’s Medium (DMEM), along with penicillin/streptomycin and L-glutamine, were acquired from Gibco BRL, California, USA. Fetal bovine serum (FBS) and 3-(4, 5-dimethylthiazol-2-yl)-2, 5-[…] (MTT) were supplied by Sigma-Aldrich, St. Louis, Missouri, USA.\n(§4) The methanolic extract of V. odorata flowers and isolated flavonoids were subjected to an in vitro anti-inflammatory assessment by inhibiting two isoenzymes, cyclooxygenase COX-1 and COX-2 (ovine/human), as well as the 5-LOX enzyme (human recombinant)."}, "COX-2": {"target": "T2, COX-2 (Homo sapiens, UniProt P35354)", "T2 construct": "purchased Cayman 560131", "T2 sequence (P35354 18-604)": "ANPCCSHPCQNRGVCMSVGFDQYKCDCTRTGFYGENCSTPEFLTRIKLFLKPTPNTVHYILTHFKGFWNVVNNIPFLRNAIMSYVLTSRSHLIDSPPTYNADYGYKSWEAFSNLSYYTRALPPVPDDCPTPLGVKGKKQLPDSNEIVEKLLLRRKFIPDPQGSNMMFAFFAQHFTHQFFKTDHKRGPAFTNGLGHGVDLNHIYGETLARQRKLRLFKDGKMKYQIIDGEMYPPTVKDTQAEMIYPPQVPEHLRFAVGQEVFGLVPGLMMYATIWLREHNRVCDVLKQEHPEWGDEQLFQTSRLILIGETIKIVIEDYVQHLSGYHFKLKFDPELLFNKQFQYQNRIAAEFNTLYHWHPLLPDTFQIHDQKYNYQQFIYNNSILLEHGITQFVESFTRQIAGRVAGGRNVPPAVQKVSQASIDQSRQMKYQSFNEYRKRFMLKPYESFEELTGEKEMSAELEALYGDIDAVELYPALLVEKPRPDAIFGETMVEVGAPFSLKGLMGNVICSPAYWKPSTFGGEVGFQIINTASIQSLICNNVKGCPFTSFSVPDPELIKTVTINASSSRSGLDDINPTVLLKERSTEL", "assay": "COX-2 inhibition assay (Cayman COX kit)", "format": "biochemical, ovine/human", "source_text": "as §3, §4"}, "[4]": {"target": "T3, 5-LOX enzyme (human recombinant) (Homo sapiens, UniProt P09917)", "T3 construct": "purchased Sigma-Aldrich 437996", "T3 sequence (P09917 1-674)": "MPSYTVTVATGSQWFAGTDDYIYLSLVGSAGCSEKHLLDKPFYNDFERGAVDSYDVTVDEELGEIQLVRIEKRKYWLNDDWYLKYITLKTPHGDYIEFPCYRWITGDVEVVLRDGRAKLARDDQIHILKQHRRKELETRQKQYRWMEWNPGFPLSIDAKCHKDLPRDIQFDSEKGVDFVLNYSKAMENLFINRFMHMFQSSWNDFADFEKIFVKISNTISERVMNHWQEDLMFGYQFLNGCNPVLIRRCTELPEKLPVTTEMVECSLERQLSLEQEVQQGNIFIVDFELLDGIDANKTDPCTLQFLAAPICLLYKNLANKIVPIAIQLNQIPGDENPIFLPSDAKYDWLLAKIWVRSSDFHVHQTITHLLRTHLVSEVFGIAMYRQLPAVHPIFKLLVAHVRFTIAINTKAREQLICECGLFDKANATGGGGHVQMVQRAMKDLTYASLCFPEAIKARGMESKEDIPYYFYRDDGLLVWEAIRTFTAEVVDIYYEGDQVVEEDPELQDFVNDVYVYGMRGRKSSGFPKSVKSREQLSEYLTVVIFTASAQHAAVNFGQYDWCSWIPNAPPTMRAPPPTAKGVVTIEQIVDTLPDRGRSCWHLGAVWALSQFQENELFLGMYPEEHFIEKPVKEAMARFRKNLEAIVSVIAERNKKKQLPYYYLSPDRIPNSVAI", "assay": "5-lipoxygenase inhibition assay (5-LOX kit)", "format": "biochemical", "settings": "mean ± SE, n = 3", "source_text": "as §3, §4"}},
  "note": "Marks after values point to notes of the source that are not given here.",
  "data": [
    {"smiles": "O=c1cc(-c2ccc(O)c(O)c2)oc2cc(O[C@@H]3O[C@H](CO)[C@@H](O)[C@H](O)[C@H]3O)cc(O)c12", "note": "[Luteolin 7-O-glucoside, luteolin 7-O-glucoside]", "values": [
      {"measurement": "% Cell viability", "setting": "[1]; HepG2, 6.25 ug/ml", "value": 70.35, "unit": "%"},
      {"measurement": "% Cytotoxicity", "setting": "[1]; HepG2, 6.25 ug/ml", "value": 29.65, "unit": "%"},
      {"measurement": "% Cell viability", "setting": "[1]; HepG2, 12.5 ug/ml", "value": 63.99, "unit": "%"},
      {"measurement": "% Cytotoxicity", "setting": "[1]; HepG2, 12.5 ug/ml", "value": 36.01, "unit": "%"},
      {"measurement": "% Cell viability", "setting": "[1]; HepG2, 25 ug/ml", "value": 42.58, "unit": "%"},
      {"measurement": "% Cytotoxicity", "setting": "[1]; HepG2, 25 ug/ml", "value": 57.42, "unit": "%"},
      {"measurement": "% Cell viability", "setting": "[1]; HepG2, 50 ug/ml", "value": 28.52, "unit": "%"},
      {"measurement": "% Cytotoxicity", "setting": "[1]; HepG2, 50 ug/ml", "value": 71.48, "unit": "%"},
      {"measurement": "% Cell viability", "setting": "[1]; HepG2, 100 ug/ml", "value": 14.11, "unit": "%"},
      {"measurement": "% Cytotoxicity", "setting": "[1]; HepG2, 100 ug/ml", "value": 85.89, "unit": "%"},
      {"measurement": "IC50", "setting": "[1]; HepG2, 48 h", "value": "28.23^c ug/ml"},
      {"measurement": "% Cell viability", "setting": "[2]; HTC-116, 6.25 ug/ml", "value": 69.86, "unit": "%"},
      {"measurement": "% Cytotoxicity", "setting": "[2]; HTC-116, 6.25 ug/ml", "value": 30.14, "unit": "%"},
      {"measurement": "% Cell viability", "setting": "[2]; HTC-116, 12.5 ug/ml", "value": 59.38, "unit": "%"},
      {"measurement": "% Cytotoxicity", "setting": "[2]; HTC-116, 12.5 ug/ml", "value": 40.62, "unit": "%"},
      {"measurement": "% Cell viability", "setting": "[2]; HTC-116, 25 ug/ml", "value": 49.17, "unit": "%"},
      {"measurement": "% Cytotoxicity", "setting": "[2]; HTC-116, 25 ug/ml", "value": 50.83, "unit": "%"},
      {"measurement": "% Cell viability", "setting": "[2]; HTC-116, 50 ug/ml", "value": 34.03, "unit": "%"},
      {"measurement": "% Cytotoxicity", "setting": "[2]; HTC-116, 50 ug/ml", "value": 65.97, "unit": "%"},
      {"measurement": "% Cell viability", "setting": "[2]; HTC-116, 100 ug/ml", "value": 13.01, "unit": "%"},
      {"measurement": "% Cytotoxicity", "setting": "[2]; HTC-116, 100 ug/ml", "value": 86.99, "unit": "%"},
      {"measurement": "IC50", "setting": "[2]; HTC-116, 48 h", "value": "30.17^c ug/ml"},
      {"measurement": "% Cell viability", "setting": "[3]; Caco-2, 6.25 ug/ml", "value": 70.32, "unit": "%"},
      {"measurement": "% Cytotoxicity", "setting": "[3]; Caco-2, 6.25 ug/ml", "value": 29.68, "unit": "%"},
      {"measurement": "% Cell viability", "setting": "[3]; Caco-2, 12.5 ug/ml", "value": 60.35, "unit": "%"},
      {"measurement": "% Cytotoxicity", "setting": "[3]; Caco-2, 12.5 ug/ml", "value": 39.65, "unit": "%"},
      {"measurement": "% Cell viability", "setting": "[3]; Caco-2, 25 ug/ml", "value": 49.22, "unit": "%"},
      {"measurement": "% Cytotoxicity", "setting": "[3]; Caco-2, 25 ug/ml", "value": 50.78, "unit": "%"},
      {"measurement": "% Cell viability", "setting": "[3]; Caco-2, 50 ug/ml", "value": 31.01, "unit": "%"},
      {"measurement": "% Cytotoxicity", "setting": "[3]; Caco-2, 50 ug/ml", "value": 68.99, "unit": "%"},
      {"measurement": "% Cell viability", "setting": "[3]; Caco-2, 100 ug/ml", "value": 10.63, "unit": "%"},
      {"measurement": "% Cytotoxicity", "setting": "[3]; Caco-2, 100 ug/ml", "value": 89.37, "unit": "%"},
      {"measurement": "IC50", "setting": "[3]; Caco-2, 48 h", "value": "29.42^c ug/ml"},
      {"measurement": "IC50 values COX-1", "setting": "COX-1", "value": "0.982 ± 0.09^c ug/ml"},
      {"measurement": "IC50 values COX-2", "setting": "COX-2; mean ± SE, n = 3", "value": "1.305 ± 0.14^b ug/ml"},
      {"measurement": "Selectivity Index (COX-1/COX-2)", "setting": "COX-2; ratio of IC50 COX-1 to IC50 COX-2", "value": 0.75},
      {"measurement": "IC50 values 5-LOX", "setting": "[4]", "value": "0.915 ± 0.21^ab ug/ml"}
    ]}
  ]
}
